The text below walks through data of patent US20220055989A1, “CONDENSED PYRROLES AS NOVEL BROMODOMAIN INHIBITORS” (ALBERT LUDWING UNIVERSITÄT FREIBURG, priority 2018, published 2022).

One experiment concerns the target T1, BRPF1B (Homo sapiens, UniProt P55201).
T1 construct: dissociation constants KD for two bromodomains (BRD4(1) and BRPF1B)
T1 sequence (P55201 628-732 limits assumed): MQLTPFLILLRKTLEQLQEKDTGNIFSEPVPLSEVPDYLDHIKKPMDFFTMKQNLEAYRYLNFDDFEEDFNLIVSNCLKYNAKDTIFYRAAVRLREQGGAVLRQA
Put plainly: Dissociation constant KD BRPF1B. It counts as binding.

In the next experiment the target is T2, BRPF1 (Homo sapiens, UniProt P55201).
T2 construct: T7 phage strains displaying bromodomains were grown; host or cells: T7 phage in E. coli derived from BL21
T2 sequence (P55201 628-732 limits assumed): T1 sequence (P55201 628-732 limits assumed)
Put plainly: BROMOscan Kd determination BRPF1. It counts as binding. As to the method: (§1) Bromodomain profiling was carried out on the basis of BROMOscan™. This platform accounted for the indirect determination of the dissociation constants between 19 bromodomains and the compound of formula (13), by binding competition against a reference immobilized ligand. Compounds that bind the bromodomain prevent its binding to the immobilized ligand thus reducing the amount of protein captured. […] Hits are identified by measuring the amount of bromodomain captured in test versus control samples. Bromodomain assays for Kd determination: T7 phage strains displaying bromodomains were grown in parallel in 24-well blocks in an E. coli host derived from the BL21 strain. E. coli were grown to log-phase and infected with T7 phage from a frozen stock (multiplicity of infection=0.4) and incubated with shaking at 32° C. until lysis (90-150 minutes). The lysates were centrifuged (5,000×g) and filtered (0.2 μm) to remove cell debris. […] The liganded beads were blocked with excess biotin and washed with blocking buffer (SeaBlock (Pierce), 1% BSA, 0.05% Tween 20, 1 mM DTT) to remove unbound ligand and to reduce non-specific phage binding. […] Test compounds were prepared as 1000× stocks in 100% DMSO. Kds were determined using an 11-point 3-fold compound dilution series with one DMSO control point. All compounds for Kd measurements are distributed by acoustic transfer (non-contact dispensing) in 100% DMSO. The compounds were then diluted directly into the assays such that the final concentration of DMSO was 0.09%. All reactions performed in polypropylene 384-well plates. Each was a final volume of 0.02 ml. […] The bromodomain concentration in the eluates was measured by qPCR. […] All compounds for Kd measurements are distributed by acoustic transfer (non-contact dispensing) in 100% DMSO. The compounds were then diluted directly into the assays such that the final concentration of DMSO was 0.09%. Most Kds were determined using a compound top concentration=10,000 nM. If the initial Kd determined was <0.169 nM (the lowest concentration tested), the measurement was repeated with a serial dilution starting at a lower top concentration. Binding Constants (Kds): Binding constants (Kds) were calculated with a standard dose-response curve using the Hill equation: The Hill Slope was set to −1. Curves were fitted using a non-linear least square fit with the Levenberg-Marquardt algorithm.

Experiment [1] concerns the target T3, BRD4(1) (Homo sapiens, UniProt O60885).
T3 construct: BRD4-BD1 was expressed and purified as described previously; made in house
Put plainly: BROMOscan Kd determination BRD4(1). It counts as binding. The method, then:
as §1

The target of a further experiment is T4, CECR2 (Homo sapiens, UniProt Q9BXF3).
T4 construct: T7 phage strains displaying bromodomains were grown; host or cells: T7 phage in E. coli derived from BL21
Put plainly: BROMOscan Kd determination CECR2. The class given is binding. As to the method:
as §1

A further experiment deals with T5, BRD9 (Homo sapiens, UniProt Q9H8M2).
T5 construct: T7 phage strains displaying bromodomains were grown; host or cells: T7 phage in E. coli derived from BL21
T5 sequence (Q9H8M2 136-240 limits assumed): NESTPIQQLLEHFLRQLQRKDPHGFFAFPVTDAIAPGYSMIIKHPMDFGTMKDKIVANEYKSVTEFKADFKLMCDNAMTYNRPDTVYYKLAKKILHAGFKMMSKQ
Kind of experiment: BROMOscan Kd determination BRD9. It counts as binding. As to the method:
as §1

Another experiment concerns the target T6, BRD7 (Homo sapiens, UniProt Q9NPI1).
T6 construct: T7 phage strains displaying bromodomains were grown; host or cells: T7 phage in E. coli derived from BL21
T6 sequence (Q9NPI1 131-235 limits assumed): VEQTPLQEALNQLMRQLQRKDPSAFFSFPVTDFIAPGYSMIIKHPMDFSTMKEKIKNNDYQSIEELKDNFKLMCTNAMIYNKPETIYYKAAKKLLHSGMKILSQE
Put plainly: BROMOscan Kd determination BRD7. It counts as binding. The method, then:
as §1

In experiment [2] the target is T3, BRD4(1). Kind of experiment: Isothermal titration calorimetry, dissociation constant KD BRD4(1). The class given is binding. As to the method:
BRD4-BD1 was expressed and purified as described previously (Filippakopoulos et al, (2012), Cell 149(1): […]) with the exception of the final buffer for crystallization and ITC analysis (20 mM Hepes/NaOH pH 7.5, 150 mM NaCl). Crystals were grown in the presence of 3.5 M Na-Formate (pH 7.5) at a protein concentration of 10 mg/ml and a ligand concentration of 2 mM added directly to the protein prior to crystallization from a 100 mM stock solution in DMSO. Data were collected at 100K using either a Rigaku HF-007 rotating anode X-ray generator equipped with VariMaxHF optics and a Saturn944 CCD detector or a mar345 image plate respectively at λ=1.54179 Å or at the PXI beamline at the Swiss Light Source at λ=1.000 Å with a Pilatus detector. Data processing and reduction was done with iMOSFLM (Leslie AGW PH (2007), Evolving Methods for Macromolecular Crystallography 245, 41.51), POINTLESS, and SCALA (Kabsch W (2010) Xds. Acta crystallographica. Section D, Biological crystallography 66(Pt 2):125-132; Bruker (2008) SADABS, SAINT and XPREP (Bruker AXS Inc., Madison, Wis., USA); Collaborative Computational Project N (1994) The CCP4 suite: programs for protein crystallography, Acta crystallographica, Section D, Biological crystallography 50(Pt 5):760-763), or with XDS, XSCALE, XDSCONV (Evans P (2006), Scaling and assessment of data quality, Acta crystallographica, Section D, Biological crystallography 62(Pt 1):72-82), and XPREP (Evans P R (2011), An introduction to data reduction: space-group determination, scaling and intensity statistics, Acta crystallographica, Section D, Biological crystallography 67(Pt 4):282-292).
Data were obtained in discrete titration experiments with an injection volume of 12 μl per injection. Subsequently, the heats per injection were calculated as integrals and after normalization against the molar concentrations plotted against the molar ratio as implemented in Microcal Origin. Finally, data were fitted according to a single set of sites binding model with
The dissociation constant Kd, is commonly used to describe the affinity between a ligand L and a protein, i.e. how tightly a ligand binds to a particular protein. The dissociation constant has molar units which correspond to the concentration of ligand at which the binding site on a particular protein is half occupied, i.e. the concentration of the ligand at which the concentration of protein with ligand bound equals the concentration of protein with no ligand bound. The smaller the dissociation constant, the higher the affinity between ligand and protein.

The target of another experiment is T7, EP300 (Homo sapiens, UniProt Q09472).
T7 construct: T7 phage strains displaying bromodomains were grown; host or cells: T7 phage in E. coli derived from BL21
T7 sequence (Q09472 1049-1156 limits assumed): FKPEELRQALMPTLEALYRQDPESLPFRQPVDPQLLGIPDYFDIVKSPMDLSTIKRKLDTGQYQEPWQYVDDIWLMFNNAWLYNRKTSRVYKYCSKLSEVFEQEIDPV
Kind of experiment: BROMOscan Kd determination EP300. The class given is binding. As to the method:
as §1

Another experiment has as its system HL-60 cells. Kind of experiment: GI50 in a culture of HL-60 cells. The class given is cell-based. The following applies: concentration required to reduce the population of a culture of HL-60 cells by 50%.
A further experiment has as its system P. falciparum cultures. Put plainly: Plasmodium falciparum inhibitor treatment for 72 hours, parasitemia by flow cytometry. The class given is cell-based. The following applies: 100 μm of compound, vs DMSO control, early ring, mid trophozoite and schizont stages. As to the method:
Plasmodium falciparum Inhibitor Treatment for 72 Hours (One Replication Cycle) P. falciparum cultures were treated for 72 hours with 100 μm of compounds (19) to (22), (24) and (25) or DMSO as control. The cultures were stained for DNA content with fluorescent dye Hoechst 33342 (20 μm) and for RNA content with thiazole orange (1 μm). The double negative population represented uninfected erythrocytes (devoid of DNA and low in RNA content) whereas the P. falciparum infected erythrocytes were gated as early ring, mid trophozoite and late schizont stages based on their DNA and RNA content.
(In flow cytometry, cells or beads pass a laser one at a time.)

T4 sequence (Q9BXF3 434-538 limits assumed): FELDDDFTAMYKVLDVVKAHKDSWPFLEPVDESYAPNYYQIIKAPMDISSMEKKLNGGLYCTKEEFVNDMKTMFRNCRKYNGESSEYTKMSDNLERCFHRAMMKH

In the case of `Cc1[nH]c(-c2cccc(N)c2)c2c1C(=O)CCCC2` [Compound 20], at BRPF1B, the dissociation constant Kd – broadly, a measure of binding affinity in units of concentration – worked out at 567 nM.

Take `COc1ccc(S(=O)(=O)N2CCCCC2)cc1NC(=O)c1[nH]c(C)c2c1CCCCC2=O` [Compound 15]: the Kd on BRPF1 came out at 1800 nM; at BRD4(1) [1], 82 nM; on CECR2 it was 580 nM; at BRD9 it was 300 nM; on BRD7 it was 440 nM; at BRD4(1) [2] it was 47.3 nM. Moreover, the Kd on EP300 was determined as 3500 nM.

For `CCN(CC)S(=O)(=O)c1ccc(O)c(NC(=O)c2[nH]c(C)c3c2CCCCC3=O)c1` [Compound 18], the affinity on BRD4(1) [2], expressed as Kd, was 72.2 nM.

For `CCOC(=O)c1[nH]c(C)c2c1CCCCC2=O` [Compound 8, Ethyl 3-methyl-4-oxo-2,4,5,6,7,8-hexahydrocyclohepta[c]pyrrole-1-carboxylate], the Kd at BRPF1B worked out at 1050 nM; on BRD4(1) [2] it was 4560 nM.

For the molecule `CCOC(=O)c1[nH]c(C)c2c1CCC=CC2=O` [Compound 9, Ethyl 3-methyl-4-oxo-2,4,7,8-tetrahydrocyclohepta[c]pyrrole-1-carboxylate], the Kd at BRPF1B worked out at 2050 nM; on BRD4(1) [2], 8280 nM.

On BRPF1B, `Cc1[nH]c(-c2cccc(O)c2)c2c1C(=O)CCCC2` [Compound 19] yielded a Kd of 910 nM.

In the case of `COc1ccc(S(=O)(=O)N2CCN(C)CC2)cc1NC(=O)c1[nH]c(C)c2c1CCCCC2=O` [Compound 14], the dissociation constant (Kd) at BRPF1 was found to be 320 nM; at BRD4(1) [1], 300 nM; on CECR2, 240 nM; on BRD9, 68 nM; on BRD7, 160 nM; at BRD4(1) [2], 260 nM. For the same molecule, binding on EP300 was put at a Kd of 1800 nM. In the experiment with HL-60 cells, this molecule showed a GI50HL60 of 2080 nM.

Take `CCN(CC)S(=O)(=O)c1ccc(OC)c(NC(=O)c2[nH]c(C)c3c2CCCCC3=O)c1` [Compound 11, N-(5-(N,N-diethylsulfamoyl)-2-methoxyphenyl)-3-methyl-4-oxo-2,4,5,6,7,8-hexahydrocyclohepta[c]pyrrole-1-carboxamide]: the Kd was 420 nM at BRPF1; 85 nM at BRD4(1) [1]; 1100 nM at CECR2; 160 nM at BRD9; 250 nM at BRD7; 144 nM on BRD4(1) [2]. At EP300, this molecule came in with a Kd of 2100 nM. In the experiment with HL-60 cells, this molecule yielded a GI50HL60 of 1360 nM.

Consider `COc1ccc(S(=O)(=O)N2CCCCCC2)cc1NC(=O)c1[nH]c(C)c2c1CCCCC2=O` [Compound 12, N-(5-(azepan-1-ylsulfonyl)-2-methoxyphenyl)-3-methyl-4-oxo-2,4,5,6,7,8-hexahydrocyclohepta[c]pyrrole-1-carboxamide], for which the Kd at BRPF1 amounted to 2500 nM; at BRD4(1) [1], 170 nM; at CECR2 it was 8100 nM; on BRD9, 530 nM; on BRD7 it was 310 nM; at BRD4(1) [2], 177 nM. At EP300, this molecule showed a Kd of 9000 nM. For the same molecule, in the experiment on HL-60 cells, the GI50HL60 is 570 nM.

With `Cc1[nH]c(-c2ccccc2)c2c1C(=O)CCCC2` [Compound 21], at BRPF1B, the Kd was 1990 nM.

As for `CNC(=O)c1[nH]c(C)c2c1CCCCC2=O` [1″], the Kd on BRPF1B is 5080 nM; at BRD4(1) [2], 6410 nM.

Regarding `Cc1[nH]c(-c2cccc(C(N)=O)c2)c2c1C(=O)CCCC2` [Compound 25], the Kd on BRPF1B came out at 713 nM.

At BRPF1B, `Cc1noc(-c2[nH]c(C)c3c2CCCCC3=O)n1` [Compound 22] yielded a Kd of 2310 nM.

On BRPF1B, `Cc1[nH]c(-c2ccc3cc[nH]c3c2)c2c1C(=O)CCCC2` [Compound 24, 1-(1H-indol-6-yl)-3-methyl-5,6,7,8-tetrahydrocyclohepta[c]pyrrol-4(2H)-one] yielded a Kd of 639 nM. In the experiment on P. falciparum cultures, the degree of parasitemia entry is listed as “particularly effective”.

In the case of `COc1ccc(S(=O)(=O)N2CC3(COC3)C2)cc1NC(=O)c1[nH]c(C)c2c1CCCCC2=O` [Compound 16], the Kd was determined as 1300 nM at BRPF1; 150 nM at BRD4(1) [1]; 760 nM on CECR2; 4.3 nM on BRD9; 5.5 nM at BRD7; 417 nM at BRD4(1) [2]. The affinity at EP300, expressed as Kd, was 990 nM.
